Key:
bedstraw = experiment: Test B pre/postemergence bedstraw; type: in vivo, Galium aparine; settings: for Bedstraw plant response rating: scale of 0 to 10 where 0 is no effect and 10 is complete control
In short: (§1)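 Test chemicals in a non-phytotoxic solvent mixture with surfactant were sprayed preemergence onto planted seeds and postemergence onto plants 2 to 18 cm tall (1- to 4-leaf stage). After twelve to sixteen days in a greenhouse, injury was visually rated against untreated controls from 0 (no effect) to 10 (complete control).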

blackgrass = experiment: Test B pre/postemergence blackgrass; type: in vivo, Alopecurus myosuroides; settings: for Blackgrass plant response rating: scale of 0 to 10 where 0 is no effect and 10 is complete control
In short: as §1

surinam grass = experiment: Test B pre/postemergence surinam grass; type: in vivo, Brachiaria decumbens; settings: for B. signalgrass plant response rating: scale of 0 to 10 where 0 is no effect and 10 is complete control
In short: as §1

cocklebur = experiment: Test B pre/postemergence cocklebur; type: in vivo, Xanthium strumarium; settings: for Cocklebur plant response rating: scale of 0 to 10 where 0 is no effect and 10 is complete control
In short: as §1

corn = experiment: Test B pre/postemergence corn; type: in vivo, Zea mays; settings: for Corn plant response rating: scale of 0 to 10 where 0 is no effect and 10 is complete control
In short: as §1

crabgrass = experiment: Test B pre/postemergence crabgrass; type: in vivo, Digitaria sanguinalis; settings: for Crabgrass plant response rating: scale of 0 to 10 where 0 is no effect and 10 is complete control
In short: as §1

giant foxtail = experiment: Test B pre/postemergence giant foxtail; type: in vivo, Setaria faberii; settings: for Giant foxtail plant response rating: scale of 0 to 10 where 0 is no effect and 10 is complete control
In short: as §1

morningglory = experiment: Test B pre/postemergence morningglory; type: in vivo, Ipomoea hederacea; settings: for Morningglory plant response rating: scale of 0 to 10 where 0 is no effect and 10 is complete control
In short: as §1

pigweed = experiment: Test B pre/postemergence pigweed; type: in vivo, Amaranthus retroflexus; settings: for Redroot pigweed plant response rating: scale of 0 to 10 where 0 is no effect and 10 is complete control
In short: as §1

rape = experiment: Test B pre/postemergence rape; type: in vivo, Brassica napus; settings: for Rape plant response rating: scale of 0 to 10 where 0 is no effect and 10 is complete control
In short: as §1

soybean = experiment: Test B pre/postemergence soybean; type: in vivo, Glycine max; settings: for Soybean plant response rating: scale of 0 to 10 where 0 is no effect and 10 is complete control
In short: as §1

sugar beet = experiment: Test B pre/postemergence sugar beet; type: in vivo, Beta vulgaris; settings: for Sugarbeets plant response rating: scale of 0 to 10 where 0 is no effect and 10 is complete control
In short: as §1

velvetleaf = experiment: Test B pre/postemergence velvetleaf; type: in vivo, Abutilon theophrasti; settings: for Velvetleaf plant response rating: scale of 0 to 10 where 0 is no effect and 10 is complete control
In short: as §1

wheat = experiment: Test B pre/postemergence wheat; type: in vivo, Triticum aestivum; settings: for Wheat plant response rating: scale of 0 to 10 where 0 is no effect and 10 is complete control
In short: as §1

wild oat = experiment: Test B pre/postemergence wild oat; type: in vivo, Avena fatua; settings: for Wild oats plant response rating: scale of 0 to 10 where 0 is no effect and 10 is complete control
In short: as §1

purple nutsedge = experiment: Test B pre/postemergence purple nutsedge; type: in vivo, Cyperus rotundus; settings: for Nutsedge plant response rating: scale of 0 to 10 where 0 is no effect and 10 is complete control
In short: as §1

[1] = Postemergence, Rate 125 g/ha, scale 0 to 10, 0 is no effect, 10 is complete control
[2] = Postemergence, Rate 250 g/ha, scale 0 to 10, 0 is no effect, 10 is complete control
[3] = Preemergence, Rate 62 g/ha, scale 0 to 10 (0 no effect, 10 complete control)
[4] = Rate 500 g/ha, Postemergence, scale 0 to 10, 0 no effect, 10 complete control

CC(C)N(C(=O)n1oc(=O)n(C2(C)CC2)c1=O)c1ccc(Cl)cc1 [Compound 361]
Plant response rating, Bedstraw (bedstraw; [1]): 7 | Plant response rating, Bedstraw (bedstraw; [2]): 8 | Plant response rating, Bedstraw (bedstraw; [3]): 0 | Bedstraw plant response rating (0 to 10 scale) (bedstraw; Preemergence, Rate 125 g/ha): 0 | Bedstraw plant response rating (bedstraw; Preemergence, Rate 250 g/ha): 0 | Bedstraw plant response rating (bedstraw; Preemergence, Rate 500 g/ha): 2 | Bedstraw plant response rating (bedstraw; Rate 62 g/ha, Postemergence): 7 | Plant response rating, Bedstraw (bedstraw; [4]): 8 | Plant response rating, Blackgrass (blackgrass; [1]): 7 | Plant response rating, Blackgrass (blackgrass; [2]): 8 | Plant response rating, Blackgrass (blackgrass; [3]): 3 | Blackgrass plant response rating (0 to 10 scale) (blackgrass; Preemergence, Rate 125 g/ha): 8 | Blackgrass plant response rating (blackgrass; Preemergence, Rate 250 g/ha): 10 | Blackgrass plant response rating (blackgrass; Preemergence, Rate 500 g/ha): 10 | Blackgrass plant response rating (blackgrass; Rate 62 g/ha, Postemergence): 5 | Plant response rating, Blackgrass (blackgrass; [4]): 8 | Plant response rating, B. signalgrass (surinam grass; [1]): 0 | Plant response rating, B. signalgrass (surinam grass; [2]): 3 | Plant response rating, B. signalgrass (surinam grass; [3]): 3 | B. signalgrass plant response rating (0 to 10 scale, 0 is no effect, 10 is complete control) (surinam grass; Preemergence, Rate 125 g/ha): 4 | B. signalgrass plant response rating (surinam grass; Preemergence, Rate 250 g/ha): 4 | B. signalgrass plant response rating (surinam grass; Preemergence, Rate 500 g/ha): 6 | B. signalgrass plant response rating (surinam grass; Rate 62 g/ha, Postemergence): 0 | Plant response rating, B. signalgrass (surinam grass; [4]): 4 | Plant response rating, Cocklebur (cocklebur; [1]): 0 | Plant response rating, Cocklebur (cocklebur; [2]): 0 | Plant response rating, Cocklebur (cocklebur; [3]): 0 | Cocklebur plant response rating (0 to 10 scale) (cocklebur; Preemergence, Rate 125 g/ha): 0 | Cocklebur plant response rating (cocklebur; Preemergence, Rate 250 g/ha): 0 | Cocklebur plant response rating (cocklebur; Preemergence, Rate 500 g/ha): 0 | Cocklebur plant response rating (cocklebur; Rate 62 g/ha, Postemergence): 0 | Plant response rating, Cocklebur (cocklebur; [4]): 2 | Plant response rating, Corn (corn; [1]): 0 | Plant response rating, Corn (corn; [2]): 0 | Plant response rating, Corn (corn; [3]): 0 | Corn plant response rating (0 to 10 scale) (corn; Preemergence, Rate 125 g/ha): 0 | Corn plant response rating (corn; Preemergence, Rate 250 g/ha): 1 | Corn plant response rating (corn; Preemergence, Rate 500 g/ha): 6 | Corn plant response rating (corn; Rate 62 g/ha, Postemergence): 0 | Plant response rating, Corn (corn; [4]): 0 | Plant response rating, Crabgrass (crabgrass; [1]): 2 | Plant response rating, Crabgrass (crabgrass; [2]): 2 | Plant response rating, Crabgrass (crabgrass; [3]): 2 | Crabgrass plant response rating (0 to 10 scale) (crabgrass; Preemergence, Rate 125 g/ha): 7 | Crabgrass plant response rating (crabgrass; Preemergence, Rate 250 g/ha): 7 | Crabgrass plant response rating (crabgrass; Preemergence, Rate 500 g/ha): 9 | Crabgrass plant response rating (crabgrass; Rate 62 g/ha, Postemergence): 0 | Plant response rating, Crabgrass (crabgrass; [4]): 5 | Plant response rating, Giant foxtail (giant foxtail; [1]): 4 | Plant response rating, Giant foxtail (giant foxtail; [2]): 5 | Plant response rating, Giant foxtail (giant foxtail; [3]): 7 | Giant foxtail plant response rating (0 to 10 scale) (giant foxtail; Preemergence, Rate 125 g/ha): 9 | Giant foxtail plant response rating (giant foxtail; Preemergence, Rate 250 g/ha): 10 | Giant foxtail plant response rating (giant foxtail; Preemergence, Rate 500 g/ha): 10 | Giant foxtail plant response rating (giant foxtail; Rate 62 g/ha, Postemergence): 1 | Plant response rating, Giant foxtail (giant foxtail; [4]): 5 | Plant response rating, Morningglory (morningglory; [1]): 2 | Plant response rating, Morningglory (morningglory; [2]): 7 | Plant response rating, Morningglory (morningglory; [3]): 0 | Morningglory plant response rating (0 to 10 scale) (morningglory; Preemergence, Rate 125 g/ha): 0 | Morningglory plant response rating (morningglory; Preemergence, Rate 250 g/ha): 0 | Morningglory plant response rating (morningglory; Preemergence, Rate 500 g/ha): 0 | Morningglory plant response rating (morningglory; Rate 62 g/ha, Postemergence): 1 | Plant response rating, Redroot pigweed (pigweed; [1]): 5 | Plant response rating, Redroot pigweed (pigweed; [2]): 6 | Plant response rating, Redroot pigweed (pigweed; [3]): 1 | Redroot pigweed plant response rating (0 to 10 scale) (pigweed; Preemergence, Rate 125 g/ha): 7 | Redroot pigweed plant response rating (pigweed; Preemergence, Rate 250 g/ha): 8 | Redroot pigweed plant response rating (pigweed; Preemergence, Rate 500 g/ha): 10 | Redroot pigweed plant response rating (pigweed; Rate 62 g/ha, Postemergence): 3 | Plant response rating, Redroot pigweed (pigweed; [4]): 7 | Plant response rating, Rape (rape; [1]): 3 | Plant response rating, Rape (rape; [2]): 3 | Plant response rating, Rape (rape; [3]): 4 | Rape plant response rating (0 to 10 scale) (rape; Preemergence, Rate 125 g/ha): 5 | Rape plant response rating (rape; Preemergence, Rate 250 g/ha): 5 | Rape plant response rating (rape; Preemergence, Rate 500 g/ha): 6 | Rape plant response rating (rape; Rate 62 g/ha, Postemergence): 2 | Plant response rating, Rape (rape; [4]): 4 | Plant response rating, Soybean (soybean; [1]): 4 | Plant response rating, Soybean (soybean; [2]): 5 | Plant response rating, Soybean (soybean; [3]): 0 | Soybean plant response rating (0 to 10 scale) (soybean; Preemergence, Rate 125 g/ha): 0 | Soybean plant response rating (soybean; Preemergence, Rate 250 g/ha): 0 | Soybean plant response rating (soybean; Preemergence, Rate 500 g/ha): 1 | Soybean plant response rating (soybean; Rate 62 g/ha, Postemergence): 2 | Plant response rating, Soybean (soybean; [4]): 5 | Plant response rating, Sugarbeets (sugar beet; [1]): 5 | Plant response rating, Sugarbeets (sugar beet; [2]): 5 | Plant response rating, Sugarbeets (sugar beet; [3]): 0 | Sugarbeets plant response rating (0 to 10 scale) (sugar beet; Preemergence, Rate 125 g/ha): 2 | Sugarbeets plant response rating (sugar beet; Preemergence, Rate 250 g/ha): 6 | Sugarbeets plant response rating (sugar beet; Preemergence, Rate 500 g/ha): 6 | Sugarbeets plant response rating (sugar beet; Rate 62 g/ha, Postemergence): 2 | Plant response rating, Sugarbeets (sugar beet; [4]): 6 | Plant response rating, Velvetleaf (velvetleaf; [1]): 0 | Plant response rating, Velvetleaf (velvetleaf; [2]): 0 | Plant response rating, Velvetleaf (velvetleaf; [3]): 0 | Velvetleaf plant response rating (0 to 10 scale) (velvetleaf; Preemergence, Rate 125 g/ha): 0 | Velvetleaf plant response rating (velvetleaf; Preemergence, Rate 250 g/ha): 4 | Velvetleaf plant response rating (velvetleaf; Preemergence, Rate 500 g/ha): 5 | Velvetleaf plant response rating (velvetleaf; Rate 62 g/ha, Postemergence): 0 | Plant response rating, Velvetleaf (velvetleaf; [4]): 3 | Plant response rating, Wheat (wheat; [1]): 0 | Plant response rating, Wheat (wheat; [2]): 0 | Plant response rating, Wheat (wheat; [3]): 0 | Wheat plant response rating (0 to 10 scale) (wheat; Preemergence, Rate 125 g/ha): 0 | Wheat plant response rating (wheat; Preemergence, Rate 250 g/ha): 2 | Wheat plant response rating (wheat; Preemergence, Rate 500 g/ha): 6 | Wheat plant response rating (wheat; Rate 62 g/ha, Postemergence): 0 | Plant response rating, Wheat (wheat; [4]): 2 | Plant response rating, Wild oats (wild oat; [1]): 2 | Plant response rating, Wild oats (wild oat; [2]): 6 | Plant response rating, Wild oats (wild oat; [3]): 7 | Wild oats plant response rating (0 to 10 scale) (wild oat; Preemergence, Rate 125 g/ha): 8 | Wild oats plant response rating (wild oat; Preemergence, Rate 250 g/ha): 8 | Wild oats plant response rating (wild oat; Preemergence, Rate 500 g/ha): 10 | Wild oats plant response rating (wild oat; Rate 62 g/ha, Postemergence): 0 | Plant response rating, Wild oats (wild oat; [4]): 6 | Plant response rating, Nutsedge (purple nutsedge; [1]): 0 | Plant response rating, Nutsedge (purple nutsedge; [2]): 0 | Plant response rating, Nutsedge (purple nutsedge; [3]): 0 | Nutsedge plant response rating (0 to 10 scale) (purple nutsedge; Preemergence, Rate 125 g/ha): 0 | Nutsedge plant response rating (purple nutsedge; Preemergence, Rate 250 g/ha): 0 | Nutsedge plant response rating (purple nutsedge; Preemergence, Rate 500 g/ha): 0 | Nutsedge plant response rating (purple nutsedge; Rate 62 g/ha, Postemergence): 0 | Plant response rating, Nutsedge (purple nutsedge; [4]): 0
